SMILES strings stand for the structures.

The data set is described as follows: gradient 5% acetonitrile 3 min, to 50% in 2 min, to 85% in 15 min, held 3 min, 100 µL/min. The following applies: column: Zorbax Extend-C18 2.1 x 50 mm; eluents: water / acetonitrile, 0.1% formic acid. In a few lines:
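Each retention time is based on an adduct peak selected computationally and verified by manual inspection. Measurements used HPLC–quadrupole time-of-flight mass spectrometry in positive and negative ionization mode on mixtures of ~100 pure standards. Chromatography ran on a Zorbax Extend-C18 column (2.1 × 50 mm, 1.8 μm) at 100 μL/min with water and acetonitrile, each containing 0.1% formic acid, and dead and dwell volumes of 40 μL and 900 μL.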
The molecule `CCc1ccc(CNC(=O)CCC(=O)N2CCCn3nc(C)cc32)cc1` yielded an RP-LC retention time of 666 s. As for `CCn1cc(CN2C[C@@H](COC)[C@H](c3ccccn3)C2)c(C)n1`, the figure is 573 s; as for `Cc1nc(-c2ccc3c(c2)CCN3C(=O)c2ccc(F)cc2)cs1`, 961 s; as for `Cc1ccc(NC(=O)C2CC(=O)N(c3ccc4oc(C)nc4c3)C2)c(F)c1` (stereo not drawn), 741 s.

The molecule `COCCNC(=O)C1CCN(C(=O)c2cc3oc(C)cc3n2Cc2c(F)cccc2Cl)CC1` registered an RP-LC retention time of 804 s. In the case of `COc1ccccc1-c1noc(-c2cn(C)c3ccc(F)cc3c2=O)n1`, the RP-LC retention time worked out at 744 s. In turn, `Cc1nnc2n1CCN(C(=O)Cc1c(F)cccc1Cl)C2` yielded an RP-LC retention time of 616 s. The molecule `Cn1cnc2ccc(-c3noc(CCc4c[nH]c5ccccc45)n3)cc21` had an RP-LC retention time of 731 s.

`O=C(NCC(=O)N1CCN(c2ccccc2Cl)CC1)c1c[nH]c2ccccc12` returned an RP-LC retention time of 785 s. As for `CCOc1ccccc1C(=O)NCc1nc(C)no1`, the figure is 684 s; as for `Cc1cccc(-n2c(=O)c3c(cc(C)n3C)n(CC(=O)Nc3ccccc3Cl)c2=O)c1`, 842 s. As for `COc1cc(-c2oc3cc(O)cc(O)c3c(=O)c2O[C@@H]2O[C@H](CO)[C@@H](O)[C@H](O)[C@H]2O)cc(OC)c1O`, the figure is 619 s; as for `CN(C)C(=O)c1ccc2oc(CN3CCN(C(=O)NC4CCCCC4)CC3)nc2c1`, 614 s. Molecule `Cc1ccc(N2CCC(NS(=O)(=O)c3ccccc3F)C2=O)cc1` (stereo not drawn) had an RP-LC retention time of 894 s. With `CCCNC(=O)N1CCCCCC1CN1CCCC1` (stereo not drawn) the figure was 580 s; with `CC[C@H](C)Nc1c(C(=O)OC)c(=O)[nH]c2c(Cl)cccc12`, 783 s. As for `Cc1noc(C)c1S(=O)(=O)NCCOc1cc(N2CCOCC2)ncn1`, the figure is 643 s. Consider `CCCN1CCN(CCCNC(=O)CSc2nc3ccccc3n(C)c2=O)CC1`, for which the RP-LC retention time came to 564 s. As for `Cc1cccc(N2CCN(C3=NC(=O)C(Cc4ccccc4)S3)CC2)c1` (stereo not drawn), the figure is 910 s.

In turn, `COc1ccc([C@H]2Sc3ccccc3N(CCN(C)C)C(=O)[C@H]2OC(C)=O)cc1` yielded an RP-LC retention time of 704 s. On to `COc1ccc(-c2nc3ncccn3c2Nc2ccc(C)cc2)cc1`, for which the RP-LC retention time was determined as 744 s. Molecule `O=C(NCCc1ccccc1)N1CCC(c2noc(-c3ccncc3)n2)C1` (stereo not drawn) showed an RP-LC retention time of 731 s.

As to `COc1ccc(Cn2c(=O)c3sccc3n(Cc3nc(-c4ccccc4OC)no3)c2=O)cc1`, the RP-LC retention time is 970 s. With `Cc1c(Cl)cccc1S(=O)(=O)N1CCc2c(c(-c3nnc(-c4ccccc4F)o3)nn2C)C1`, the RP-LC retention time is 1050 s. As for `N#Cc1ccc(S(=O)(=O)N2CCC(c3cc(N)on3)CC2)cc1`, the figure is 737 s. As for `O=C(O)c1nnn(-c2ccc3c(c2)OCCO3)c1-c1cccnc1`, the figure is 568 s; as for `O=C(Nc1ncc(S(=O)(=O)c2ccc([N+](=O)[O-])cc2)s1)c1ccccc1F`, 866 s.

In turn, `COc1cc(N2C=C(C(=O)N3CCCCC3)S(=O)(=O)c3ccccc32)cc(OC)c1OC` showed an RP-LC retention time of 812 s. With `Cc1cnc(-c2ccccc2)n1C1CCN(S(=O)(=O)c2ccc(C#N)cc2)C1` (stereo not drawn) the figure was 680 s. The molecule `O=C(O)C1=CCCN(CCON=C(c2ccccc2)c2ccccc2)C1` had an RP-LC retention time of 766 s.

As to `Cc1oc(-c2[nH]ncc2C(=O)N2CCOCC2)cc1S(=O)(=O)Nc1ccc(F)cc1`, the RP-LC retention time turned out to be 669 s. As to `Cc1cc(N2CCN(C)CC2)nc2ccc(NC(=S)NCC3(c4ccccc4)CCCC3)cc12`, the RP-LC retention time amounted to 636 s. In turn, `O=C(Cn1nc2ccc(-c3ccc(Cl)cc3)nn2c1=O)N1CCN(c2ccc(F)cc2)CC1` registered an RP-LC retention time of 876 s. As for `Cc1c(CNCc2cccnc2)c(C(=O)O)c(C)n1Cc1cccc(F)c1`, the figure is 618 s; as for `Cc1noc(C)c1S(=O)(=O)N1CCC(n2c(C)cnc2-c2cccnc2)C1` (stereo not drawn), 616 s. On to `CCOC(=O)c1cnc2c(-c3ccc(Br)cc3)c(C)nn2c1N`, for which the RP-LC retention time came out at 1230 s. As for `O=C(Nc1cc(F)cc(F)c1)N1CCC(CCNC(=O)C2(c3ccccc3)CC2)CC1`, the figure is 984 s; as for `O=C(NCCCN1CCOCC1)c1ccc2ccnc(N3CCN(c4ccccc4)CC3)c2c1`, 586 s; as for `CCOC(=O)c1ncoc1-c1ccccc1C(=O)NC1CCCCC1`, 770 s. As for `CCCn1ccc2sc(C)c(C(=O)NCc3ccc(OC)cc3)c2c1=O`, the figure is 836 s. With `O=C(Nc1ccc2c(c1)OCO2)C1CC(=O)N(CCc2c[nH]c3ccc(F)cc23)C1` (stereo not drawn) the figure was 750 s; with `CCc1cccc(NC(=O)C2CCN(S(=O)(=O)c3cc(C(=O)N4CCCC4)cs3)CC2)c1`, 892 s. `O=C(Nc1ccccc1-c1nc2ccccc2[nH]1)c1cccc([N+](=O)[O-])c1` gave an RP-LC retention time of 1040 s.

On to `COC(=O)Cn1nc2c(-c3nc(-c4ccc(Cl)cc4)no3)cccn2c1=O`, for which the RP-LC retention time stood at 911 s.

Take `O=C(CC1CCCN(c2cn[nH]c(=O)c2)C1)N1CCC2(CC1)OCCO2` (stereo not drawn): the RP-LC retention time was found to be 604 s.

With `O=C(CSc1cc(-n2ccc(C(=O)NC3CC3)n2)ncn1)Nc1ccc(Cl)cc1F`, the RP-LC retention time is 867 s. As for `CCOC(=O)Cc1ccc(NC(=O)N2CCc3cn(CC)c4cccc(c34)C2)cc1`, the figure is 1020 s; as for `CC(C)c1ccc(S(=O)(=O)N(C)CC2CCOCC2)cc1`, 1010 s.

For the molecule `O=C(NCCc1ccco1)C1CCN(Cc2cc3ccccc3n2Cc2ccccc2)CC1`, the RP-LC retention time turned out to be 762 s. Consider `Cc1ccc(-c2ncc(C(=O)NCCN3CCCCCC3)c(-c3ccncc3)n2)cc1`, for which the RP-LC retention time was 637 s.

Take `O=C(Cn1cc(-c2ccccc2)c2ncnc(N3CCOCC3)c21)NC1CCCCC1`: the RP-LC retention time came out at 753 s. `CC(=O)c1cccc(NC(=O)C2Oc3ccccc3NC2=O)c1` (stereo not drawn): the RP-LC retention time stood at 702 s. Molecule `COc1ccccc1-c1noc(C2CCCN2C(=O)c2cc(F)ccc2F)n1` (stereo not drawn) showed an RP-LC retention time of 968 s.

Molecule `Cc1ccccc1S(=O)(=O)N1CCC(Cc2nc3cccnc3n2CC(C)C)C1` (stereo not drawn) came in with an RP-LC retention time of 785 s. As for `CC1CCN(C(=O)c2cc(S(=O)(=O)N3CCC(C(=O)N4CCCCCC4)CC3)cn2C)CC1`, the figure is 839 s. On to `CC1=NS(=O)(=O)N(Cc2ccccc2)C=C1C(=O)OCc1cc(C)ccc1C`, for which the RP-LC retention time was 1200 s. As for `O=C1NC2(CCN(C(=O)c3ccc4c(c3)OCO4)CC2)Nc2cc(Cl)ccc21`, the figure is 708 s; as for `O=C(Cn1nc(C(=O)N2CCCC2)c2ccccc21)NCc1cccnc1`, 580 s. With `CO[C@H]1C(=O)N(C(C)C)[C@H]1C1CCN(C(=O)Nc2ccc(C)c(C)c2)CC1` the figure was 820 s; with `COc1ccc(C)cc1N1C(=O)CC(N2CCC(C(N)=O)CC2)C1=O` (stereo not drawn), 590 s. As to `Cc1ccc2c(C(=O)Nc3ccc(N4CCOCC4)cc3)cc(NC(=O)C(C)C)cc2n1`, the RP-LC retention time turned out to be 618 s. For the molecule `CCc1nc2cc(CNC(=O)Cc3ccc(Cl)cc3)ccc2n1C`, the RP-LC retention time was 641 s. With `COC(=O)C1=CN(CC(=O)N2CCN(c3ccccc3F)CC2)S(=O)(=O)N=C1C` the figure was 908 s; with `Cc1ccc(S(=O)(=O)N2CC(c3nc(C)no3)C3(CCOCC3)C2)cc1` (stereo not drawn), 845 s; with `O=C(CN1C(=O)CCS(=O)(=O)c2ccccc21)Nc1ccccc1C(F)(F)F`, 746 s. `COc1ccc(N2CCN(C(=O)C3CCCN(c4nccc5sc(C)cc45)C3)CC2)cc1` (stereo not drawn) yielded an RP-LC retention time of 676 s.

The molecule `O=C(Nc1cc(-c2ccccc2)[nH]n1)c1ccc(Cl)cc1` showed an RP-LC retention time of 925 s.

For `O=C(Nc1nc(CC(=O)N2CCN(c3ccccc3O)CC2)cs1)c1cnccn1`, the RP-LC retention time was 612 s.

The molecule `COc1ccc(OC)c(NC(=O)c2nc(C)oc2C)c1` registered an RP-LC retention time of 935 s.

Turning to `O=C(c1ccc(-c2cccnc2)nc1)N1CCN(c2cccc(Cl)c2)CC1`, the RP-LC retention time came to 726 s. With `Cc1cccc(CNC(=O)Cn2c(=O)c3nnc(C)n3c3ncccc32)c1` the figure was 685 s; with `Cc1ccc(S(=O)(=O)N2C[C@H](F)C[C@@H]2C(=O)N2CCOCC2)cc1Cl`, 750 s; with `Cc1ccc2[nH]c(C(=O)N3CCOCC3)cc2c1`, 582 s.

For `O=c1c2sccc2n(Cc2nc(-c3ccc(Cl)c(F)c3)no2)c(=O)n1-c1cccc(F)c1`, the RP-LC retention time stood at 1090 s. Turning to `O=C(NCCc1csc(-c2cccs2)n1)C1CCN(C(=O)c2cccc(Cl)c2)CC1`, the RP-LC retention time is 839 s.

`Cc1ccc(C)c(N2CCN(C(=O)C3CCCN(c4ncnc5c4nc4n5CCCCC4)C3)CC2)c1` (stereo not drawn) showed an RP-LC retention time of 1050 s. With `O=C(Nc1cccc(Br)c1)N1CCc2nc(-c3ccc(F)cc3)ncc2C1` the figure was 1060 s; with `CCOc1ccc(S(=O)(=O)NCC2CCN(C(=O)c3cccn(C)c3=O)CC2)cc1C`, 657 s.

The record behind these values is the METLIN SMRT retention time set (Domingo-Almenara et al. 2019).
